How the values were obtained:
cisplatin-induced emesis = assay: ferret model of cisplatin-induced emesis (Tattersall et al, Eur. J. Pharmacol. 1993); assay type: in vivo
NK1 receptor = NK1 receptor (Homo sapiens, UniProt P25103); assay: NK1 receptor test by the methods of WO 93/01165 (pages 36 to 39); assay type: binding; settings: test methods of WO 93/01165, pages 36 to 39
Protocol: The compound of this invention was tested by the methods set out at pages 36 to 39 of International Patent Specification No. WO 93/01165.

NK1 receptor, sequence (P25103 whole entry): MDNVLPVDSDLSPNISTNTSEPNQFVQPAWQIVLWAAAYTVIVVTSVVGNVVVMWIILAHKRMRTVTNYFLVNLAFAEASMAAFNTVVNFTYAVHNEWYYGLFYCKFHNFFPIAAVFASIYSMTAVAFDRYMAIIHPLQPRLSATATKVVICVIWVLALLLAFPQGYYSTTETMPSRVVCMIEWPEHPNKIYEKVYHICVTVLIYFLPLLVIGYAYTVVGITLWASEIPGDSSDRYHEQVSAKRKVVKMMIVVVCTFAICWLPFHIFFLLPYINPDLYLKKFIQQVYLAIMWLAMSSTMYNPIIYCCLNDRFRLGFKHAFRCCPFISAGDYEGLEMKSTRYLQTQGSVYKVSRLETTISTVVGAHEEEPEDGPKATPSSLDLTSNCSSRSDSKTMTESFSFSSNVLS

IC50 (NK1 receptor): < 1 nM
SMILES: Cn1cnc(CN2CCO[C@H](O[C@H](CO)c3cc(C(F)(F)F)cc(C(F)(F)F)c3)[C@@H]2c2ccc(F)cc2)n1 [Example 1, 2(R)-(1-(3,5-Bis(trifluoromethyl)phenyl)-2(S)-hydroxyethoxy)-3(S)-(4-fluorophenyl)-4-((1-methyl-1,2,4-triazol-3-yl)methylene)morpholine]
retching and vomiting induced by cisplatin (cisplatin-induced emesis): attenuate the retching and vomiting induced by cisplatin
